{"source": "paper PMC3908673", "about": "(Bioorganic & medicinal chemistry, 2013)", "key": {"[1]": {"molecular_target": "T1, β2-AR (Homo sapiens, UniProt P07550)", "T1 sequence (P07550 whole entry)": "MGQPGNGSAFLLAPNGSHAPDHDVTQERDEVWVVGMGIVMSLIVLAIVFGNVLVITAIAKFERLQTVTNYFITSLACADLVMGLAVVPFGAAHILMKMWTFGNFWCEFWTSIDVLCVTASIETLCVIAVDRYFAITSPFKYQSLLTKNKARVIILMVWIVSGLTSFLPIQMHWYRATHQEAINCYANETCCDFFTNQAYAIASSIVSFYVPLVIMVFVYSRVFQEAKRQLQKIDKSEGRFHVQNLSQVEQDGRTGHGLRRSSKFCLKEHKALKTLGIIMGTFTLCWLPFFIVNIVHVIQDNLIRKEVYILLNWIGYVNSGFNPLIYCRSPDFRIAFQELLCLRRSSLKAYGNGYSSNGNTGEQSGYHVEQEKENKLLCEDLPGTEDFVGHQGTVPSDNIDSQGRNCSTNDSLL", "assay_type": "binding"}, "[2]": {"molecular_target": "T1, β2-AR", "conditions": "marker [3H]-(R,R′)-2"}, "[3]": {"molecular_target": "β2-AR relative to the β1-AR", "conditions": "β2-AR subtype selectivity; ref [3]; cited from earlier work"}, "[4]": {"tested_on": "isolated rat ventricular myocytes", "conditions": "cited from earlier work"}, "[5]": {"tested_on": "1321N1 astrocytoma cells", "conditions": "read-out: IC50, proliferation of 1321N1 astrocytoma cells; ref [5]; cited from earlier work"}, "[6]": {"tested_on": "Gs proteins", "conditions": "ref [2]; cited from earlier work"}, "[7]": {"tested_on": "isolated rat ventricular myocytes", "assay": "cardiomyocyte contractility model", "assay_type": "cell-based", "conditions": "initial studies, unpublished data"}, "[8]": {"tested_on": "1321N1 astrocytoma cells", "assay": "inhibition of proliferation of 1321N1 astrocytoma cells", "assay_type": "cell-based", "conditions": "Homo sapiens, 1321-N1, read-out: IC50, proliferation of 1321N1 astrocytoma cells"}}, "note": "Where two headings read alike, the source gives them in different places."}
{"smiles": "COc1ccc(C[C@H](C)NC[C@H](O)c2cc(O)cc(O)c2)cc1", "note": "[(R,S′)-2]", "values": [{"measurement": "HS (Hill coefficient), displacement of [3H]-CGP-12177", "setting": "[1]", "value": "1.01 ± 0.14"}, {"measurement": "HS (Hill coefficient), displacement of [3H]-(R,R′)-2", "setting": "[2]", "value": "1.00 ± 0.05"}]}
{"smiles": "CC[C@@H](Cc1ccc(O)cc1)NC[C@H](O)c1cc(O)cc(O)c1", "note": "[(R,S′)-52]", "values": [{"measurement": "HS (Hill coefficient), displacement of [3H]-CGP-12177", "setting": "[1]; marker [3H]-CGP-12177", "value": "2.07 ± 0.4"}, {"measurement": "HS (Hill coefficient), displacement of [3H]-(R,R′)-2", "setting": "[2]", "value": "0.87 ± 0.2"}]}
{"smiles": "CCC[C@@H](Cc1ccc(OC)cc1)NC[C@H](O)c1cc(O)cc(O)c1", "note": "[(R,S′)-66, (R,S′)-5-(1-Hydroxy-2-((1-(4-methoxyphenyl)pentan-2-yl)amino)ethyl)benzene-1,3-diol]", "values": [{"measurement": "HS (Hill coefficient), displacement of [3H]-(R,R′)-2", "setting": "[2]", "value": "0.89 ± 0.14"}]}
{"smiles": "CC[C@@H](Cc1ccc(OC)cc1)NC[C@H](O)c1cc(O)cc(O)c1", "note": "[(R,S′)-64, (R,S′)-(+)-5-(1-Hydroxy-2-((1-(4-methoxyphenyl)butan-2-yl)amino)ethyl)benzene-1,3-diol]", "values": [{"measurement": "HS (Hill coefficient), displacement of [3H]-(R,R′)-2", "setting": "[2]", "value": "0.86 ± 0.05"}]}
{"smiles": "C[C@@H](Cc1ccc(O)cc1)NC[C@H](O)c1cc(O)cc(O)c1", "note": "[(R,S′)-1]", "values": [{"measurement": "HS (Hill coefficient), displacement of [3H]-CGP-12177", "setting": "[1]; marker [3H]-CGP-12177", "value": "0.81 ± 0.1"}, {"measurement": "HS (Hill coefficient), displacement of [3H]-(R,R′)-2", "setting": "[2]", "value": "0.97 ± 0.1"}]}
{"smiles": "CC[C@H](Cc1ccc(O)cc1)NC[C@H](O)c1cc(O)cc(O)c1", "note": "[(R,R′)-52]", "values": [{"measurement": "Kiβ1-AR/Kiβ2-AR", "setting": "[3]", "value": 334}, {"measurement": "stimulation of rat cardiomyocyte contractility", "setting": "[4]; ref [3]", "value": "essentially inactive"}, {"measurement": "lower activity in the cardiomyocyte contractility model", "setting": "[4]; relative to other tested compounds, ref [3]", "value": "> 100", "unit": "fold"}, {"measurement": "HS (Hill coefficient), displacement of [3H]-CGP-12177", "setting": "[1]; marker [3H]-CGP-12177", "value": "1.01 ± 0.01"}, {"measurement": "IC50", "setting": "[5]", "value": 1.4, "unit": "nM"}, {"measurement": "HS (Hill coefficient), displacement of [3H]-(R,R′)-2", "setting": "[2]", "value": "0.93 ± 0.1"}]}
{"smiles": "COc1ccc(C[C@H](C)NC[C@@H](O)c2cc(O)cc(O)c2)cc1", "note": "[(S,S′)-2]", "values": [{"measurement": "HS (Hill coefficient), displacement of [3H]-CGP-12177", "setting": "[1]", "value": "2.30 ± 0.32"}, {"measurement": "HS (Hill coefficient), displacement of [3H]-(R,R′)-2", "setting": "[2]", "value": "1.68 ± 0.54"}]}
{"smiles": "COc1ccc(C[C@@H](C)NC[C@H](O)c2cc(O)cc(O)c2)c2ccccc12", "note": "[(R,R′)-54]", "values": [{"measurement": "HS (Hill coefficient), displacement of [3H]-CGP-12177", "setting": "[1]; marker [3H]-CGP-12177", "value": "1.07 ± 0.09"}, {"measurement": "HS (Hill coefficient), displacement of [3H]-(R,R′)-2", "setting": "[2]", "value": "0.86 ± 0.1"}]}
{"smiles": "COc1ccc(C[C@@H](NC[C@H](O)c2cc(O)cc(O)c2)C(C)C)cc1", "note": "[(R,S′)-65, (R,S′)-(−)-5-(1-hydroxy-2-((1-(4-methoxyphenyl)-3-methylbutan-2-yl)amino)-ethyl)benzene-1,3-diol]", "values": [{"measurement": "HS (Hill coefficient), displacement of [3H]-(R,R′)-2", "setting": "[2]", "value": "1.45 ± 0.56"}]}
{"smiles": "COc1ccc(C[C@@H](C)NC[C@@H](O)c2cc(O)cc(O)c2)cc1", "note": "[(S,R′)-2]", "values": [{"measurement": "HS (Hill coefficient), displacement of [3H]-(R,R′)-2", "setting": "[2]", "value": "0.86 ± 0.13"}]}
{"smiles": "COc1ccc(CCNC[C@H](O)c2cc(O)cc(O)c2)cc1", "note": "[(R)-67, (R)-(−)-5-(1-Hydroxy-2-((4-methoxyphenethyl)amino)ethyl)benzene-1,3-diol]", "values": [{"measurement": "HS (Hill coefficient), displacement of [3H]-CGP-12177", "setting": "[1]; marker [3H]-CGP-12177", "value": "1.80 ± 0.70"}, {"measurement": "HS (Hill coefficient), displacement of [3H]-(R,R′)-2", "setting": "[2]", "value": "1.59 ± 0.50"}, {"measurement": "Ki lower than (S)-67", "setting": "[2]", "value": 10, "unit": "fold"}]}
{"smiles": "COc1ccc(C[C@H](NC[C@H](O)c2cc(O)cc(O)c2)C(C)C)cc1", "note": "[(R,R′)-65, (R,R′)-5-(1-Hydroxy-2-((1-(4-methoxyphenyl)-3-methylbutan-2-yl)amino)ethyl)-benzene-1,3-diol]", "values": [{"measurement": "HS (Hill coefficient), displacement of [3H]-(R,R′)-2", "setting": "[2]", "value": "1.41 ± 0.47"}]}
{"smiles": "CCC[C@H](Cc1ccc(OC)cc1)NC[C@H](O)c1cc(O)cc(O)c1", "note": "[(R,R′)-66, (R,R′)-5-(1-Hydroxy-2-((1-(4-methoxyphenyl)pentan-2-yl)amino)ethyl)benzene-1,3-diol]", "values": [{"measurement": "HS (Hill coefficient), displacement of [3H]-CGP-12177", "setting": "[1]; marker [3H]-CGP-12177", "value": "0.90 ± 0.03"}, {"measurement": "HS (Hill coefficient), displacement of [3H]-(R,R′)-2", "setting": "[2]", "value": "1.38 ± 0.32"}]}
{"smiles": "COc1ccc(C[C@@H](C)NC[C@H](O)c2cc(O)cc(O)c2)cc1", "note": "[(R,R′)-2, (R,R′)-4′-methoxyfenoterol]", "values": [{"measurement": "HS (Hill coefficient), displacement of [3H]-CGP-12177", "setting": "[1]", "value": "0.98 ± 0.05"}, {"measurement": "G protein coupling", "setting": "[6]", "value": "selectively signaled through Gs proteins"}, {"measurement": "HS (Hill coefficient), displacement of [3H]-(R,R′)-2", "setting": "[2]", "value": "0.80 ± 0.9"}]}
{"smiles": "COc1ccc(C[C@H](C)NC[C@H](O)c2cc(O)cc(O)c2)c2ccccc12", "note": "[(R,S′)-54]", "values": [{"measurement": "HS (Hill coefficient), displacement of [3H]-CGP-12177", "setting": "[1]; marker [3H]-CGP-12177", "value": "1.06 ± 0.02"}, {"measurement": "HS (Hill coefficient), displacement of [3H]-(R,R′)-2", "setting": "[2]", "value": "0.90 ± 0.2"}]}
{"smiles": "C[C@H](Cc1ccc(O)cc1)NC[C@H](O)c1cc(O)cc(O)c1", "note": "[(R,R′)-1, (R,R′)-Fenoterol]", "values": [{"measurement": "increase in contractile response", "setting": "[4]; isolated rat ventricular myocytes, ref [1],[2]", "value": 300, "unit": "%"}, {"measurement": "G protein coupling", "setting": "[6]", "value": "selectively couples to Gs proteins"}, {"measurement": "HS (Hill coefficient), displacement of [3H]-(R,R′)-2", "setting": "[2]", "value": "0.76 ± 0.1"}]}
{"smiles": "CC[C@H](Cc1ccc(OC)cc1)NC[C@H](O)c1cc(O)cc(O)c1", "note": "[(R,R′)-64, (R,R′)-(−)-5-(1-Hydroxy-2-((1-(4-methoxyphenyl)butan-2-yl)amino)ethyl)benzene-1,3-diol]", "values": [{"measurement": "HS (Hill coefficient), displacement of [3H]-CGP-12177", "setting": "[1]; marker [3H]-CGP-12177", "value": "1.00 ± 0.11"}, {"measurement": "Ki lower than (R,R′)-52", "setting": "[1]; marker [3H]-CGP-12177", "value": 3, "unit": "fold"}, {"measurement": "Ki(R,S′)/Ki(R,R′)", "setting": "[1]; marker [3H]-CGP-12177, difference between (R,S′)- and (R,R′)-isomers", "value": 50, "unit": "fold"}, {"measurement": "activity in the cardiomyocyte contractility model", "setting": "[7]", "value": "no activity"}, {"measurement": "IC50", "setting": "[8]", "value": 1.5, "unit": "nM"}, {"measurement": "HS (Hill coefficient), displacement of [3H]-(R,R′)-2", "setting": "[2]", "value": "0.82 ± 0.04"}, {"measurement": "decrease in binding affinity compared with (R,R′)-2", "setting": "[2]", "value": 10, "unit": "fold"}]}
{"smiles": "COc1ccc(CCNC[C@@H](O)c2cc(O)cc(O)c2)cc1", "note": "[(S)-67, (S)-5-(1-Hydroxy-2-((4-methoxyphenethyl)amino)ethyl)benzene-1,3-diol]", "values": [{"measurement": "HS (Hill coefficient), displacement of [3H]-(R,R′)-2", "setting": "[2]", "value": "0.89 ± 0.03"}]}
